The assay deals with T1, ShkA (Caulobacter vibrioides, UniProt Q9ABT2).
T1 sequence (Q9ABT2 1-514): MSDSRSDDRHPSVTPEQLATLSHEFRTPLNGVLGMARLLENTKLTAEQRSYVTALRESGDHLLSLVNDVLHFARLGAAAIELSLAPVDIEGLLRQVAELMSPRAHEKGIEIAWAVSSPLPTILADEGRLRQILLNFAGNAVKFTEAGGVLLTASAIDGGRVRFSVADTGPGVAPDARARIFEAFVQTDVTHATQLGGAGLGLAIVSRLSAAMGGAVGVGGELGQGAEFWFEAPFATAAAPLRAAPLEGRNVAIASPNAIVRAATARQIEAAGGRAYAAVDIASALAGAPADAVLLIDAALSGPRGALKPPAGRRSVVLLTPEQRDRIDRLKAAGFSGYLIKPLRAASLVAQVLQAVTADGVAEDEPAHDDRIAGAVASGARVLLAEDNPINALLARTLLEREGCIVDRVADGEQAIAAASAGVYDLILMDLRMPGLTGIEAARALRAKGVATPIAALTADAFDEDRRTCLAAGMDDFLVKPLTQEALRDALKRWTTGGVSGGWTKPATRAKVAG
The assay is described as follows: FCA and ITC. The class given is biochemical.

The structures appear in SMILES notation.

On to `Nc1ncnc2c1ncn2[C@@H]1O[C@H](COP(=O)(O)OP(=O)(O)O)[C@@H](O)[C@H]1O` [ADP], for which the Ki (in general, the equilibrium dissociation constant of an inhibitor or competing ligand from its target) is ~60 µM.
